{"source": "ChEMBL document CHEMBL5608189", "about": "“Design and synthesis of unique indole-benzosulfonamide oleanolic acid derivatives as potent antibacterial agents against MRSA” (Eur J Med Chem, 2024)", "key": {"[1]": {"system": "Staphylococcus epidermidis", "assay": "Antibacterial activity against Staphylococcus epidermidis ATCC 12228 assessed as delay in bacterial growth at 0.5 times MIC measured every 2 hrs for 24 hrs by time kill assay", "assay_type": "functional, organism-based"}, "[2]": {"assay": "Toxicity in female C57BL/6 mouse assessed as changes in skin tissue at 10 to 30 mg/kg administered daily for 3 days and measured on day 4 by H and E staining based microscopic analysis", "assay_type": "organism-based", "details": "in vivo, 96 h, dose 10-30 mg/kg, time 4 day"}, "[3]": {"assay": "Hemolytic activity in rabbit red blood cells assessed as hemolytic rate at 128 times MIC measured after 1 hr by absorbance based method relative to control", "assay_type": "toxicity, cell-based, Oryctolagus cuniculus, Erythrocyte", "details": "rabbit red blood cells (erythrocytes), read-out: Activity"}, "Staphylococcus aureus [4]": {"system": "Staphylococcus aureus", "assay": "Induction of morphological changes in methicillin-resistant Staphylococcus aureus assessed as disruption of cellular structure at 8 times MIC incubated for 8 hrs by SEM analysis", "assay_type": "functional, organism-based"}, "Staphylococcus aureus [5]": {"system": "Staphylococcus aureus", "assay": "Bactericidal activity against methicillin-resistant Staphylococcus aureus measured after 24 hrs", "assay_type": "functional"}, "Cell membrane [6]": {"system": "Cell membrane", "assay": "Disruption of cell membrane integrity in methicillin-resistant Staphylococcus aureus assessed as leakage of cellular content at 8 times MIC incubated for 8 hrs by TEM analysis", "assay_type": "cell membranes"}, "Staphylococcus aureus [7]": {"system": "Staphylococcus aureus", "assay": "Antibacterial activity against Staphylococcus aureus ATCC 29213 measured after 24 hrs by susceptibility assay", "assay_type": "functional"}, "[8]": {"system": "Staphylococcus epidermidis", "assay": "Antibacterial activity against Staphylococcus epidermidis ATCC 12228 assessed as inhibition of bacterial growth at 2 to 4 times MIC measured every 2 hrs for 24 hrs by time kill assay relative to control", "assay_type": "functional"}, "Cell membrane [9]": {"system": "Cell membrane", "assay": "Induction of cell membrane in methicillin-resistant Staphylococcus aureus assessed as increase in fluorescence intensity at 1 to 8 times MIC measured after 30 mins by SYTOX green dye based spectrofluorometer", "assay_type": "cell membranes"}, "Staphylococcus aureus [10]": {"system": "Staphylococcus aureus", "assay": "Induction of intracellular ROS accumulation in methicillin-resistant Staphylococcus aureus assessed as number of fluorescence cells at 1 times MIC incubated for 6 hrs by DCFH-DA staining based flow cytometry analysis (reference value: 3.88)"}, "Staphylococcus aureus [11]": {"system": "Staphylococcus aureus", "assay": "Antibacterial activity against methicillin-resistant Staphylococcus aureus infected in female C57BL/6 mouse wound model assessed as log reduction in viable bacterial count at 10 mg/kg administered twice on wounds with 6 hrs interval and measured for 7 days", "assay_type": "functional", "details": "time 7 day"}, "[12]": {"assay": "Toxicity in female C57BL/6 mouse assessed as edema in skin at 10 to 30 mg/kg administered daily for 3 days", "assay_type": "organism-based", "details": "in vivo, 72 h, dose 10-30 mg/kg, time 3 day"}, "Staphylococcus aureus [13]": {"system": "Staphylococcus aureus", "assay": "Antibiofilm activity in methicillin-resistant Staphylococcus aureus assessed as eradication of formed biofilm by measuring reduction in biofilm mass at 1 times MIC measured after 24 hrs by crystal violet staining based analysis relative to control", "assay_type": "functional", "parameters": "scale not given: the % may be the effect or the level left"}, "Cell membrane [14]": {"system": "Cell membrane", "assay": "Induction of cell membrane in methicillin-resistant Staphylococcus aureus assessed as increase in fluorescence intensity by measuring number of PI-permeable cells at 8 times MIC measured after 2 hrs by PI staining based flow cytometry analysis (reference value: 5.71)", "assay_type": "cell membranes"}, "Staphylococcus aureus [15]": {"system": "Staphylococcus aureus", "assay": "Antibacterial activity against methicillin-resistant Staphylococcus aureus assessed as reduction in metabolic activity at 8 times MIC measured after 24 hrs by alamar blue assay relative to control", "assay_type": "functional", "parameters": "scale not given: the % may be the effect or the level left"}, "Staphylococcus aureus [16]": {"system": "Staphylococcus aureus", "assay": "Antibacterial activity against Staphylococcus aureus ATCC 6538 measured after 24 hrs by susceptibility assay", "assay_type": "functional"}, "[17]": {"system": "Staphylococcus epidermidis", "assay": "Bactericidal activity against Staphylococcus epidermidis ATCC 12228 measured after 24 hrs", "assay_type": "functional"}, "Staphylococcus aureus [18]": {"system": "Staphylococcus aureus", "assay": "Antibiofilm activity in methicillin-resistant Staphylococcus aureus assessed as inhibition of biofilm formation at 16 times MIC measured after 24 hrs by crystal violet staining based analysis relative to control", "assay_type": "functional"}, "Staphylococcus aureus [19]": {"system": "Staphylococcus aureus", "assay": "Induction of morphological changes in methicillin-resistant Staphylococcus aureus assessed as disruption of cell membrane integrity at 8 times MIC incubated for 8 hrs by SEM analysis", "assay_type": "functional, organism-based"}, "Staphylococcus aureus [20]": {"system": "Staphylococcus aureus", "assay": "Antibacterial activity against methicillin-resistant Staphylococcus aureus assessed as inhibition of bacterial growth at 1 times MIC measured every 2 hrs for 24 hrs by time kill assay", "assay_type": "functional, organism-based"}, "Cell membrane [21]": {"system": "Cell membrane", "assay": "Induction of cell membrane in methicillin-resistant Staphylococcus aureus assessed as increase in fluorescence intensity by measuring number of PI-permeable cells at 4 times MIC measured after 2 hrs by PI staining based flow cytometry analysis (reference value: 5.71)", "assay_type": "cell membranes"}, "Cell membrane [22]": {"system": "Cell membrane", "assay": "Induction of membrane depolarization in methicillin-resistant Staphylococcus aureus assessed as increase in fluorescence intensity at 1 to 8 times MIC measured after 30 mins by DiSC3(5) dye based spectrofluorometer", "assay_type": "cell membranes"}, "Cell membrane [23]": {"system": "Cell membrane", "assay": "Induction of cell membrane in methicillin-resistant Staphylococcus aureus assessed as increase in fluorescence intensity by measuring number of PI-permeable cells at 2 times MIC measured after 2 hrs by PI staining based flow cytometry analysis (reference value: 5.71)", "assay_type": "cell membranes"}, "Staphylococcus aureus [24]": {"system": "Staphylococcus aureus", "assay": "Antibacterial activity against Staphylococcus aureus ATCC 6538 assessed as inhibition of bacterial growth at 1 times MIC measured every 2 hrs for 24 hrs by time kill assay", "assay_type": "functional, organism-based"}, "Staphylococcus aureus [25]": {"system": "Staphylococcus aureus", "assay": "Antibacterial activity against methicillin-resistant Staphylococcus aureus assessed as reduction in metabolic activity at 1 to 8 times MIC measured after 24 hrs by alamar blue assay", "assay_type": "functional, organism-based"}, "HEK-293T": {"system": "HEK-293T", "assay": "Cytotoxicity against HEK293T cells assessed as reduction in cell viability upto 64 times MIC incubated for 24 hrs by CCK-8 assay", "assay_type": "toxicity, cell-based", "details": "human"}, "[26]": {"system": "Staphylococcus epidermidis", "assay": "Antibacterial activity against Staphylococcus epidermidis ATCC 12228 assessed as inhibition of bacterial growth at 1 times MIC measured every 2 hrs for 24 hrs by time kill assay", "assay_type": "functional, organism-based"}, "[27]": {"assay": "Toxicity in female C57BL/6 mouse assessed as erythema in skin at 10 to 30 mg/kg administered daily for 3 days", "assay_type": "organism-based", "details": "in vivo, 72 h, dose 10-30 mg/kg, time 3 day"}, "Cell membrane [28]": {"system": "Cell membrane", "assay": "Disruption of cell membrane integrity in methicillin-resistant Staphylococcus aureus assessed as protein leakage at 8 times MIC incubated for 8 hrs by BCA assay", "assay_type": "cell membranes"}, "Staphylococcus aureus [29]": {"system": "Staphylococcus aureus", "assay": "Resistant development in methicillin-resistant Staphylococcus aureus assessed as increase in MIC at sub-MIC measured after 20 passages", "assay_type": "functional, organism-based"}, "Staphylococcus aureus [30]": {"system": "Staphylococcus aureus", "assay": "Induction of intracellular ROS accumulation in methicillin-resistant Staphylococcus aureus assessed as number of fluorescence cells at 8 times MIC incubated for 6 hrs by DCFH-DA staining based flow cytometry analysis (reference value: 3.88)"}, "Staphylococcus aureus [31]": {"system": "Staphylococcus aureus", "assay": "Antibacterial activity against methicillin-resistant Staphylococcus aureus assessed as inhibition of bacterial growth at 2 to 4 times MIC measured every 2 hrs for 24 hrs by time kill assay relative to control", "assay_type": "functional"}, "Staphylococcus aureus [32]": {"system": "Staphylococcus aureus", "assay": "Bactericidal activity against Staphylococcus aureus ATCC 29213 measured after 24 hrs", "assay_type": "functional"}, "Staphylococcus aureus [33]": {"system": "Staphylococcus aureus", "assay": "Antibacterial activity against methicillin-resistant Staphylococcus aureus infected in female C57BL/6 mouse wound model assessed as log reduction in viable bacterial count at 30 mg/kg administered twice on wounds with 6 hrs interval and measured for 7 days", "assay_type": "functional", "details": "time 7 day"}, "[34]": {"system": "Staphylococcus epidermidis", "assay": "Antibacterial activity against Staphylococcus epidermidis ATCC 12228 measured after 24 hrs by susceptibility assay", "assay_type": "functional"}, "Cell membrane [35]": {"system": "Cell membrane", "assay": "Induction of cell membrane damage in methicillin-resistant Staphylococcus aureus assessed as increase in red fluorescence in PI channel at 8 times MIC incubated for 4 hrs by Calcein-AM/PI staining based confocal microscopic analysis", "assay_type": "cell membranes"}, "Staphylococcus aureus [36]": {"system": "Staphylococcus aureus", "assay": "Antibacterial activity against methicillin-resistant Staphylococcus aureus assessed as delay in bacterial growth at 0.5 times MIC measured every 2 hrs for 24 hrs by time kill assay", "assay_type": "functional, organism-based"}}, "note": "The source made the active and inactive calls. No cut-off for these calls is given here."}
{"molecule": "CC1(C)CC[C@]2(C(=O)NS(=O)(=O)c3ccc(Cl)cc3)CC[C@]3(C)C(=CC[C@@H]4[C@@]5(C)Cc6c([nH]c7c(C(=O)O)cccc67)C(C)(C)[C@@H]5CC[C@]43C)[C@@H]2C1", "values": [{"measurement": "Activity", "setting": "[1]", "value": "Active"}, {"measurement": "Activity", "setting": "[2]", "value": "Non-Toxic"}, {"measurement": "hemolysis at 1 h, 128 times MIC", "setting": "[3]", "value": "< 5", "unit": "%"}, {"measurement": "Activity", "setting": "Staphylococcus aureus [4]", "value": "Active"}, {"measurement": "MBC", "setting": "Staphylococcus aureus [5]", "value": 4, "unit": "µM"}, {"measurement": "Activity", "setting": "Cell membrane [6]", "value": "Active"}, {"measurement": "MIC", "setting": "Staphylococcus aureus [7]", "value": 2, "unit": "µM"}, {"measurement": "inhibition (INH)", "setting": "[8]", "value": 100, "unit": "%"}, {"measurement": "Activity", "setting": "Cell membrane [9]", "value": "Dose-Dependent Effect"}, {"measurement": "Activity", "setting": "Staphylococcus aureus [10]", "value": 1.96}, {"measurement": "log(activity)", "setting": "Staphylococcus aureus [11]", "value": "~1.6"}, {"measurement": "Activity", "setting": "[12]", "value": "Non-Toxic"}, {"measurement": "Activity", "setting": "Staphylococcus aureus [13]", "value": 52, "unit": "%"}, {"measurement": "Activity", "setting": "Cell membrane [14]", "value": 46.5}, {"measurement": "Activity", "setting": "Staphylococcus aureus [15]", "value": 55, "unit": "%"}, {"measurement": "MIC", "setting": "Staphylococcus aureus [16]", "value": 1, "unit": "µM"}, {"measurement": "MBC", "setting": "[17]", "value": 2, "unit": "µM"}, {"measurement": "inhibition (INH)", "setting": "Staphylococcus aureus [18]", "value": 81, "unit": "%"}, {"measurement": "Activity", "setting": "Staphylococcus aureus [19]", "value": "Active"}, {"measurement": "Activity", "setting": "Staphylococcus aureus [20]", "value": "Active"}, {"measurement": "Activity", "setting": "Cell membrane [21]", "value": 13.5}, {"measurement": "Activity", "setting": "Cell membrane [22]", "value": "Dose-Dependent Effect"}, {"measurement": "Activity", "setting": "Cell membrane [23]", "value": 11.6}, {"measurement": "Activity", "setting": "Staphylococcus aureus [24]", "value": "Active"}, {"measurement": "Activity", "setting": "Staphylococcus aureus [25]", "value": "Dose-Dependent Effect"}, {"measurement": "Activity", "setting": "HEK-293T", "value": "Non-Toxic"}, {"measurement": "Activity", "setting": "[26]", "value": "Active"}, {"measurement": "Activity", "setting": "[27]", "value": "Non-Toxic"}, {"measurement": "Activity", "setting": "Cell membrane [28]", "value": 168, "unit": "µg/mL"}, {"measurement": "Activity", "setting": "Staphylococcus aureus [29]", "value": "inactive"}, {"measurement": "Activity", "setting": "Staphylococcus aureus [30]", "value": 1.99}, {"measurement": "inhibition (INH)", "setting": "Staphylococcus aureus [31]", "value": 100, "unit": "%"}, {"measurement": "MBC", "setting": "Staphylococcus aureus [32]", "value": 2, "unit": "µM"}, {"measurement": "log(activity)", "setting": "Staphylococcus aureus [33]", "value": 2.5}, {"measurement": "MIC", "setting": "[34]", "value": 2, "unit": "µM"}, {"measurement": "Activity", "setting": "Cell membrane [35]", "value": "Active"}, {"measurement": "Activity", "setting": "Staphylococcus aureus [36]", "value": "Active"}]}
